Reference: patent publication US12552753B2, “Methods and compositions for targeting Tregs using CCR8 inhibitors” (Nanjing Immunophage Biomedical Co., Ltd., priority 2020, dated 2026)
Counter-ions that a name gives are not always drawn.

biological target: CCR8 (Homo sapiens, UniProt P51685); assay: Tango assay (Tango-CCR8-Gal4-CHO-K1 cells, CCL1-stimulated, ONE-Glo luminescence); conditions: Tango Assay IC50, Inhibition of CCR8 Tango cell in vitro
Sequence (P51685 whole entry, the tested form may be a part): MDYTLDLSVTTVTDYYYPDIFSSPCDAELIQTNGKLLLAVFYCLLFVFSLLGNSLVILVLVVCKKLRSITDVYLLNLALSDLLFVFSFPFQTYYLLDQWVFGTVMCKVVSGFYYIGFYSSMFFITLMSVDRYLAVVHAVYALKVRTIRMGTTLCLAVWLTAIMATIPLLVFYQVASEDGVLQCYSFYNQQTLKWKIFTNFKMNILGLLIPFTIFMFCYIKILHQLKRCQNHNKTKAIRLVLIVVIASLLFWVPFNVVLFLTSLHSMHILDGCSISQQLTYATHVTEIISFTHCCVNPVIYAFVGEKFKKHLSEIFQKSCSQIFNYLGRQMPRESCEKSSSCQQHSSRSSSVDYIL

Row | SMILES | IC50
1 | Cc1cc(S(=O)(=O)NCC2CCN(C)CC2)ccc1NC(=O)c1ccccc1C [Compound 238, 2-methyl-N-(2-methyl-4-(N-((1-methylpiperidin-4-yl)methyl)sulfa-moyl)phenyl)benza-mide] | 369 nM
2 | CC(=O)NC1CCc2cc(S(=O)(=O)NC(C)C3CCCCC3)ccc21 (stereo not drawn) [Compound 87, N-(5-(N-(1-cyclohexylethyl)sulfam-oyl)-2,3-dihydro-1H-inden-1-yl)acetamide] | > 10000 nM
3 | COc1cc2c(cc1NS(=O)(=O)c1ccc(NC(=O)c3ccccc3C)c3ccccc13)N(C(C)=O)CC2 [Compound 39, N-(4-(N-(1-acetyl-5-methoxyindolin-6-yl)sulfamoyl)naphthalen-1-yl)-2-methylbenzamide] | > 10000 nM
4 | Cc1ccccc1C(=O)Nc1ccc(S(=O)(=O)N[C@H](C)C2CCNCC2)cc1C1CC1 [Compound 198, (R)-N-(2-cyclopropyl-4-(N-(1-(piperidin-4-yl)ethyl)sulfamoyl)phenyl)-2-methylbenzamide] | 26 nM
5 | COCCN1CCC([C@@H](C)NS(=O)(=O)c2ccc(NC(=O)c3ccccc3C)c(C)c2)CC1 [Compound 202, (R)-N-(4-(N-(1-(1-(2-methoxyethyl)piperidin-4-yl)ethyl)sulfamoyl)-2-methylphenyl)-2-methylbenzamide] | 60 nM
6 | CC(NS(=O)(=O)c1ccc2c(c1)C(=O)NC2=O)C1CC2CCC1CC2 (stereo not drawn) [Compound 137, N-(1-(bicyclo[2.2.2]octan-2-yl)ethyl)-1,3-dioxoisoindoline-5-sulfonamide] | > 10000 nM
7 | Cc1cc(S(=O)(=O)N[C@H](C)C2CCNCC2)ccc1N1C(=O)c2ccccc2C1=O [Compound 122A, (R)-4-(1,3-dioxoisoindolin-2-yl)-3-methyl-N-(1-(piperidin-4-yl)ethyl)benzenesulfon-amide hydrochloride] | > 10000 nM
8 | CC(=O)Nc1ccccc1C(C)NS(=O)(=O)c1ccc(NC(=O)c2ccccc2C)c2ccccc12 (stereo not drawn) [Compound 125, N-(4-(N-(1-(2-acetamidophenyl)ethyl)sulfamoyl)naphthalen-1-yl)-2-methylbenzamide] | > 10000 nM
9 | Cc1ccccc1C(=O)Nc1ccc(S(=O)(=O)N[C@H](C)C2CCNCC2)c(F)c1C [Compound 177A, (R)-N-(3-fluoro-2-methyl-4-(N-(1-(piperidin-4-yl)ethyl)sulfamoyl)phen-yl)-2-methylbenzamide, hydrochloride] | 46 nM
10 | Cc1ccccc1C(=O)Nc1ccc(S(=O)(=O)N[C@H](C)C2CCCCC2)c2ccccc12 [Compound 59, (R)-N-(4-(N-(1-cyclohexylethyl)sulfamo-yl)naphthalen-1-yl)-2-methylbenzamide] | 1.6 nM
11 | COc1cc(NC(=O)c2ccccc2C)c(C)cc1S(=O)(=O)N[C@H](C)C1CCN(C)CC1 [Compound 298, (R)-N-(5-methoxy-2-methyl-4-(N-(1-(1-methylpiperidin-4-yl)ethyl)sulfamoyl)phenyl)-2-methylbenzamide] | 17 nM
12 | Cc1cc(S(=O)(=O)N[C@H](C)C2CCN(C)CC2)ccc1NC(c1ccccc1)C(F)(F)F (stereo partly drawn) [Compound 300, 3-methyl-N-((R)-1-(1-methylpiperidin-4-yl)ethyl)-4-((2,2,2-trifluoro-1-phenylethyl)amino)benzene-sulfonamide] | 2300 nM
13 | CC(=O)N1CCC(C(C)NS(=O)(=O)c2ccc(NC(=O)c3ccccc3C)c3ccccc23)CC1 (stereo not drawn) [Compound 62, N-(4-(N-(1-(1-acetylpiperidin-4-yl)ethyl)sulfamoyl)naph-thalen-1-yl)-2-methylbenzamide] | 705 nM
14 | Cc1ccccc1C(=O)Nc1c(C)cc(S(=O)(=O)N[C@H](C)C2CCNCC2)cc1Cl [Compound 180A, (R)-N-(2-chloro-6-methyl-4-(N-(1-(piperidin-4-yl)eth-yl)sulfamoyl)phen-yl)-2-methylbenzamide hydrochloride] | 2 nM
15 | Cc1ccccc1C(=O)Nc1ccc(S(=O)(=O)NC(=O)c2ccccc2N2CCOCC2)c2ccccc12 [Compound 13, 2-methyl-N-(4-(N-(2-morpholinobenzoyl)sul-famoyl)naphthalen-1-yl)benzamide] | > 10000 nM
16 | Cc1ccccc1NC(=O)c1ccc(S(=O)(=O)NC(C)C2CCCCC2)cc1 (stereo not drawn) [Compound 111, 4-(N-(1-cyclohexylethyl)sulfam-oyl)-N-(o-tolyl)benzamide] | > 10000 nM
17 | COc1cc(NC(=O)c2ccccc2C)c(C)cc1S(=O)(=O)N[C@H](C)C1CCNCC1 [Compound 314, (R)-N-(5-methoxy-2-methyl-4-(N-(1-(piperidin-4-yl)ethyl)sulfamoyl)phen-yl)-2-methylbenzamide hydrochloride] | 17 nM
18 | Cc1ccccc1C(=O)Nc1c(C)cc(S(=O)(=O)N[C@H](C)C2CCNCC2)cc1F [Compound 302, (R)-N-(2-fluoro-6-methyl-4-(N-(1-(piperidin-4-yl)eth-yl)sulfamoyl)phen-yl)-2-methylbenzamide hydrochloride] | > 100000 nM

Row | SMILES | IC50
19 | CCCC(=O)N1CCCC(CNS(=O)(=O)c2ccc(NC(=O)c3ccccc3C)c3ccccc23)C1 (stereo not drawn) [Compound 14, N-(4-(N-((1-butyrylpiperidine-3-yl)methyl)sulfamoyl)naphthalen-1-yl)-2-methylbenzamide] | > 10000 nM
20 | Cc1ccccc1C(=O)Nc1ccc(S(=O)(=O)N[C@H](C)C2CCN(C(=O)OC(C)(C)C)CC2)c(Cl)c1C [Compound 178, (R)-tert-butyl 4-(1-(2-chloro-3-methyl-4-(2-methylbenzmido)phen-ylsulfonamido)ethyl)pi-perridine-1-carboxylate] | 378 nM
21 | Cc1ccccc1C(=O)Nc1ccc(S(=O)(=O)NC(C)c2cccc(N)c2)c2ccccc12 (stereo not drawn) [Compound 72A, N-(4-(N-(1-(3-aminophenyl)ethyl)sul-famoyl)naphthalen-1-yl)-2-methylbenzamide hydrochloride] | 1140 nM
22 | Cc1ccccc1CNc1ccc(S(=O)(=O)N[C@H](C)C2CCN(C)CC2)cc1C [Compound 229, (R)-3-methyl-4-((2-methylbenzyl)amino)-N-(1-(1-methylpiperidin-4-yl)ethyl)benzenesulfonamide] | > 100000 nM
23 | CC(NS(=O)(=O)c1ccc2[nH]c(=O)[nH]c(=O)c2c1)C1CC2CCC1CC2 (stereo not drawn) [Compound 133, N-(1-(bicyclo[2.2.2]octan-2-yl)ethyl)-2,4-dioxo-1,2,3,4-tetrahydroquinazoline-6-sulfonamide] | > 10000 nM
24 | Cc1cc(S(=O)(=O)N[C@H](C)C2CCNCC2)ccc1NC(=O)c1ccc(Cl)cc1C [Compound 256A, (R)-4-chloro-2-methyl-N-(2-methyl-4-(N-(1-(piperidin-4-yl)ethyl)sulfamoyl)phenyl)benzamide hydrochloride] | 2 nM
25 | Cc1ccccc1C(=O)Nc1ccc(S(=O)(=O)NC(C)C2CCCN(C(=O)CNC(=O)OC(C)(C)C)C2)c2ccccc12 (stereo not drawn) [Compound 155D, tert-butyl (2-(3-(1-(4-(2-methylbenzamido)naph-thalene-1-sulfonamido)ethyl)piper-idin-1-yl)-2-oxoethyl)carbamate] | > 10000 nM
26 | Cc1cc(S(=O)(=O)N[C@H](C)C2CCN(CC(F)(F)F)CC2)ccc1NC(=O)c1ccccc1C [Compound 206, (R)-2-methyl-N-(2-methyl-4-(N-(1-(1-(2,2,2-trifluoroethyl)piperidin-4-yl)ethyl)sulfamoyl)phenyl)benzamide] | 61 nM
27 | Cc1ccccc1C(=O)Nc1ccc(S(=O)(=O)Nc2ccc3c(c2)CCN(C(=O)CN(C)C)C3)c2ccccc12 [Compound 42, N-(4-(N-(2-(2-(dimethylamino)acetyl)-1,2,3,4-tetrahydroisoquinolin-6-yl)sulfamoyl)naphthalen-1-yl)-2-methylbenzamide] | > 10000 nM
28 | Cc1ccccc1C(=O)Nc1cc(Cl)c(S(=O)(=O)N[C@@H](C)C2CCNCC2)cc1Cl [Compound 243B, (S)-N-(2,5-dichloro-4-(N-(1-(piperidin-4-yl)ethyl)sulfamoyl)phen-yl)-2-methylbenzamide hydrochloride] | > 100000 nM
29 | COc1ccccc1C(C)NS(=O)(=O)c1ccc(NC(=O)c2ccccc2C)c2ccccc12 (stereo not drawn) [Compound 51, N-(4-(N-(1-(2-methoxyphenyl)ethyl)sul-famoyl)naphthalen-1-yl)-2-methylbenzamide] | > 10000 nM
30 | CN(C)CC(=O)N1CCOc2ccc(NS(=O)(=O)c3ccc4ccccc4c3)cc21 [Compound 22, N-(4-(2-(dimethylamino)acetyl)-3,4-dihydro-2H-benzo[b][1,4]oxazin-6-yl)naphthalene-2-sulfonamide] | > 10000 nM
31 | CC(=O)N1CCCC(C(C)NS(=O)(=O)c2ccc(NC(=O)c3ccccc3C)c3ccccc23)C1 (single isomer, unassigned) [Compound 18A, N-(4-(N-(1-(1-acetylpiperidin-3-yl)ethyl)sulfamoyl)naph-thalen-1-yl)-2-methylbenzamide] | 21 nM
32 | Cc1cc(S(=O)(=O)N[C@H](C)C2CCNCC2)ccc1NC(=O)C1CCOCC1 [Compound 212A, (R)-N-(2-methyl-4-(N-(1-(piperidin-4-yl)ethyl)sulfamoyl)phenyl)tetrahydro-2H-pyran-4-carboxamide hydrochloride] | 2500 nM
33 | COC(=O)C(NS(=O)(=O)c1ccc(NC(=O)c2ccccc2C)c(C)c1)C1CCNCC1 (stereo not drawn) [Compound 240A, methyl 2-((3-methyl-4-(2-methylbenzamido)phen-yl)sulfonamido)-2-(piperidin-4-yl)acetate hydrochloride] | > 100000 nM
34 | COC(=O)[C@@H](NS(=O)(=O)c1ccc(NC(=O)c2ccccc2C)c2ccccc12)C1CCCCC1 [Compound 49, (S)-methyl 2-cyclohexyl-2-(4-(2-methylbenzamido)naph-thalene-1-sulfonamido)acetate] | 520 nM
35 | Cc1cc(S(=O)(=O)N[C@H](C)C2CCN(CCO)CC2)ccc1NC(=O)c1ccccc1C [Compound 205, (R)-N-(4-(N-(1-(1-(2-hydroxyethyl)piperidin-4-yl)ethyl)sulfamoyl)-2-methylphenyl)-2-methylbenzamide] | 41 nM
36 | CC(=O)N1CCC(NS(=O)(=O)c2cc(Cl)c(NC(=O)c3ccccc3C)cc2F)CC1 [Compound 312, N-(4-(N-(1-acetylpiperidin-4-yl)sulfamoyl)-2-chloro-5-fluorophenyl)-2-methylbenzamide] | 301 nM
